A short description of the data set: Longevity of ESR signals in aqueous solution obtained by adding an acid to sodium chlorite. The format is physicochemical. The note with it: relatively low concentration of HCl (0.1 M sodium chlorite with 0.08 M HCl 1:1), stored in a dark location. The method, then:
An aqueous solution obtained by adding an acid to sodium chlorite was prepared by mixing 0.1 M sodium chlorite with 2.5 M hydrochloric acid to achieve a desired concentration by using ion exchange water. The concentration of sodium chlorite was measured by standard iodometry.
An aqueous solution obtained by adding an acid to sodium chlorite was placed in a glass capillary tube with a length of 100 mm and inner diameter of 2 mm. The glass capillary was transferred to a capillary cell attached to an ESR cavity, and ESR measurement was taken by using an X band spectrometer (JEOL FA-100ESR) operated at 9.43 GHz at room temperature. The magnetic field was modulated at 100 KHz. […] The signal intensity was normalized with respect to an MnO marker, and the concentration of stable radical products was determined based on signal height by using an external standard TEMPOL. Radical species found in an aqueous solution obtained by adding an acid to sodium chlorite was quantified by using an integrated software for determining a spectral region mounted onto an ESR device.
Free radicals in an aqueous solution obtained by adding an acid to sodium chlorite were measured by using ESR measurement. […] The solution was measured 4 minutes later by ESR spectroscopy. […]

With chlorine peroxide radical, the “ESR signals remained stable” value is “one”.

The values are drawn from patent US20240246815A1, “CHLORINE PEROXIDE RADICAL, AND PRODUCTION METHOD, COMPOSITION, QUANTIFICATION METHOD AND USE THEREOF” (SANKEI CO., LTD., priority 2021, published 2024).
